# Measured values taken from patent publication US20190209501A1, “COMPOSITIONS AND METHODS OF USE OF BETA-HYDROXY-BETA-METHYLBUTYRATE (HMB) […] IN[…]” (Texas Tech University Office of Research Commercialization, priority 2018, published 2019).
# Experiments:
# [1] = Isokinetic squat peak force on mechanized squat device; assay type: in vivo, human; details: for PFCON ES (d) / PFECC ES (d): Cohen's d baseline vs week 8; for PFCON Δ (%) / PFECC Δ (%): change baseline to week 8 relative to baseline; for PFCON (N) Week 4 / PFCON (N) Week 8: concentric peak force; for PFCON (N) Week 4 / PFCON (N) Week 8 / PFECC (N) Week 4 / PFECC (N) Week 8: mean ± SE; for PFECC (N) Week 4 / PFECC (N) Week 8: eccentric peak force; for PFCON (N) Δ / PFECC (N) Δ: week 8 minus baseline
# From the text: Assessments of muscular performance took place between 12:00 and 18:00 in the non-fasted state, and participants were instructed to follow their preferred food and fluid intake patterns prior to testing. The assessment began with a 5-minute warm up period using a self-selected pace on a stationary bicycle. This warm up period was followed by assessment of countermovement vertical jumps (CMVJ) performance, testing on a mechanized squat device, and muscular strength and endurance assessment on the bench press and hip sled exercises. At the 4-week assessment, the CMVJ and hip sled assessments were not performed.
# Isometric and isokinetic squats were performed using a mechanized squat device (Exerbotics eSq, Tulsa, Okla., USA) (31, 32). At the first assessment, each participant's preferred foot positioning was determined using a custom grid overlaid on the foot platform of the squat device. This foot positioning was recorded and utilized for all visits. No weight belts, knee wraps, or other aids were utilized during testing. Prior to testing, the participant's range of motion for isokinetic testing was determined. The range of motion was set to 90° between the thigh and lower leg at the bottom of the repetition and approximately 170° at the top of the repetition, as determined by a goniometer. The isometric testing included maximal effort pushes at 120° and 150° knee angles. Each participant was instructed to push against the device as hard and fast as possible while attempting to complete a squat movement. Two isometric pushes were performed at each knee angle, and each effort lasted approximately 2 to 3 seconds. After the isometric testing, a 3-repetition maximum isokinetic force production test was completed. Prior to testing, participants observed the movement of the machine and received verbal instruction regarding proper performance of the assessment. Each of the repetitions during the maximal isokinetic force production test consisted of a 4-second eccentric phase, followed by an approximately half-second pause at the 90° knee position and a 4-second concentric phase. During testing, the force signal was sampled from the load cell at 1 kHz (MP100; Biopac Systems, Inc, Santa Barbara, Calif., USA), stored on a personal computer, and processed off-line using custom-written software (LabVIEW, Version 11.0; National Instruments, Austin, Tex., USA). The scaled force signal was low-pass filtered, with a 10-Hz cutoff (zero-phase lag, fourth-order Butterworth filter). All subsequent analyses were conducted on the scaled and filtered force signal. For the isometric force production tests, the rate of force development (RFD) over specific time intervals (i.e. 30, 50, 100 and 200 ms) was calculated by manually specifying the onset of force production within the custom LabVIEW program. For each repetition of the maximum isokinetic force production test, isokinetic peak forces (PF) were determined as the highest mean 25-ms epoch for both concentric and eccentric testing (i.e. PFCONC and PFECC).
# [2] = Urinary HMB concentrations; assay type: in vivo, human; details: for Urinary HMB concentration, Intervention: during intervention, 3 g/d calcium HMB
# From the text: At baseline and after 4 and 8 weeks of the intervention, participants completed two testing sessions: (1) a morning assessment conducted after an overnight fast for assessment of body composition, metabolism, vascular measures and subjective factors: and (2) an afternoon assessment of muscular performance, conducted in the non-fasted state. For morning assessments, participants reported to the laboratory after abstention from eating, drinking, exercising and utilizing caffeine or nicotine for ≥8 hours. Participants were interviewed to confirm adherence to these pre-assessment restrictions. The actual abstention from exercise was ≥14 hours due to the scheduling of exercise sessions. Participants reported to the laboratory wearing athletic clothing, and all metal and accessories were removed from the body prior to testing. Each participant voided her bladder and provided a urine sample. Urine samples were assessed for urine specific gravity (USG) using a digital refractometer (PA201X-093. Misco, Solon, Ohio. USA). Additionally, a standard urinary HCG test was performed to confirm that each participant was not pregnant. Finally, urinary samples were frozen at −80° C. for assessment of urinary HMB content after study unblinding. After voiding, each participant's body mass (BM) and height were determined via digital scale with stadiometer (Seca 769, Hamburg, Germany). Blood draws were performed at Texas Tech University Student Health Services after an overnight fast, and participants completed at-home saliva collections for assessment of the cortisol awakening response (CAR).
smiles,measurement,setting,value
"CC(C)(O)CC(=O)O [TRFHMB, β-hydroxy-β-methylbutyrate]","Average effect size for tests of lower body force generation (1RMLP, PFCON, PFECC, RFD)","[1]; Cohen's d, vs 0.3-0.4 in TRF or CD",0.6-0.7
same,PFCON ES (d),[1]; ITT analysis,0.83
same,PFECC ES (d),[1]; ITT analysis,0.60
same,PFCON Δ (%),[1]; ITT analysis,29%
same,PFECC Δ (%),[1]; ITT analysis,19%
same,PFCON (N) Week 4,[1]; ITT analysis,1195 ± 92 N
same,PFCON (N) Week 8,[1]; ITT analysis,1324 ± 112 N
same,PFECC (N) Week 4,[1]; ITT analysis,1301 ± 93 N
same,PFECC (N) Week 8,[1]; ITT analysis,1407 ± 95 N
same,PFCON (N) Δ,[1]; ITT analysis,295 N
same,PFECC (N) Δ,[1]; ITT analysis,223 N
same,PFCON ES (d),[1]; PP analysis,0.95
same,PFECC ES (d),[1]; PP analysis,0.48
same,PFCON Δ (%),[1]; PP analysis,31%
same,PFECC Δ (%),[1]; PP analysis,14%
same,PFCON (N) Week 4,[1]; PP analysis,1247 ± 133 N
same,PFCON (N) Week 8,[1]; PP analysis,1418 ± 154 N
same,PFECC (N) Week 4,[1]; PP analysis,1311 ± 136 N
same,PFECC (N) Week 8,[1]; PP analysis,1475 ± 133 N
same,PFCON (N) Δ,[1]; PP analysis,336 N
same,PFECC (N) Δ,[1]; PP analysis,184 N
same,"Urinary HMB concentration, Intervention",[2]; ITT analysis,5033 ± 751 nmol/mL
same,"Urinary HMB concentration, Intervention",[2]; PP analysis,6553 ± 1117 nmol/mL
same,Change in urinary HMB concentrations from pre-intervention to intervention,[2]; both ITT and PP analyses,increased significantly
